Reference: ChEMBL document CHEMBL4295262, “Evaluation of the utility of stem-cell derived cardiomyocytes for drug proarrhythmic potential” (2019)

Tests used:
Settings in all cases: human, ipsc-cm
[1] = (§1) Electrical activity assay on cell lines treated with a given drug. DMSO was used as a vehicle and a control, unblinded dofetilide was used as a control.; format: ADME, cell-based
[2] = as §1
[3] = as §1; remark: listed apart in the source
[4] = as §1; format: ADME, cell-based; remark: listed apart in the source
[5] = as §1; remark: listed apart in the source
[6] = as §1; format: ADME, cell-based; design: FPDc: unit not given here
[7] = as §1; format: cell-based; design: APDc: unit not given here
[8] = 0.003 µM, concentration (um) 0.003 uM
[9] = 0.03 µM, concentration (um) 0.03 uM
[10] = 0.3 µM, concentration (um) 0.3 uM
[11] = 0.09507 µM, concentration (um) 0.0950736 uM
[12] = 0.3004 µM, concentration (um) 0.300433 uM
[13] = 0.9494 µM, concentration (um) 0.949367 uM
[14] = 0.03169 µM, concentration (um) 0.0316912 uM
[15] = 0.1001 µM, concentration (um) 0.100144 uM
[16] = 0.3165 µM, concentration (um) 0.316456 uM
[17] = 0.0009507 µM, concentration (um) 0.000950736 uM
[18] = 0.003004 µM, concentration (um) 0.00300433 uM
[19] = 0.009494 µM, concentration (um) 0.00949367 uM

O=c1[nH]c2ccccc2n1CCCN1CCC(n2c(=O)[nH]c3cc(Cl)ccc32)CC1 [DOMPERIDONE]
FPD measurement [1, 8]: 47.3 FPDc
FPDc [1, 8]: 6 Values Out Of 6 Were Excluded Due To Quiescence Or 0 Fpdc
FPD measurement [1, 9]: 85.58 FPDc
FPDc [1, 9]: 6 Values Out Of 6 Were Excluded Due To Quiescence Or 0 Fpdc
FPD measurement [1, 10]: 42.56 FPDc
FPDc [1, 10]: 6 Values Out Of 6 Were Excluded Due To Quiescence Or 0 Fpdc
FPDc ([1]; 3 µM, concentration (um) 3 uM): 6 Values Out Of 6 Were Excluded Due To Quiescence Or 0 Fpdc
FPDc ([2]; 0.003 µM): 73.87
FPDc ([2]; 0.03 µM): 88.38
FPDc ([2]; 0.3 µM): More Than Half The Wells Had A Quiescence Event Or Fpdc Readings Of 0
FPD measurement ([2]; 3 µM): More Than Half The Wells Had A Quiescence Event Or Apdc Readings Of 0
FPDc ([2]; 3 µM): More Than Half The Wells Had A Quiescence Event Or Fpdc Readings Of 0
APDc ([3]; 0.003 µM): 72.4
FPD measurement ([3]; 0.003 µM): 72.4 FPDc
APDc ([3]; 0.03 µM): 67
FPD measurement ([3]; 0.03 µM): 67 FPDc
APDc ([3]; 0.3 µM): 78.3
FPD measurement ([3]; 0.3 µM): 78.3 FPDc
APDc ([3]; 3 µM): More Than Half The Wells Had A Quiescence Event Or Apdc Readings Of 0
FPD measurement ([3]; 3 µM): More Than Half The Wells Had A Quiescence Event Or Apdc Readings Of 0

CN1CCN(C2=Nc3cc(Cl)ccc3Nc3ccccc32)CC1 [CLOZAPINE]
FPD measurement [4, 11]: 5 Values Out Of 5 Were Excluded Due To Quiescence Or 0 Apdc
FPDc [4, 11]: 25.04
FPD measurement [4, 12]: 5 Values Out Of 5 Were Excluded Due To Quiescence Or 0 Apdc
FPDc [4, 12]: 24.94
FPD measurement [4, 13]: 5 Values Out Of 5 Were Excluded Due To Quiescence Or 0 Apdc
FPDc [4, 13]: 25.07
FPD measurement ([4]; 3 µM, concentration (um) 3 uM): 5 Values Out Of 5 Were Excluded Due To Quiescence Or 0 Apdc
FPDc ([4]; 3 µM, concentration (um) 3 uM): 22.78
FPDc ([2]; 0.09507 µM): 68.88
FPD measurement ([2]; 0.3004 µM): 5 Values Out Of 5 Were Excluded Due To Quiescence Or 0 Apdc
FPDc ([2]; 0.3004 µM): 59.23
FPD measurement ([2]; 0.9494 µM): 5 Values Out Of 5 Were Excluded Due To Quiescence Or 0 Apdc
FPDc ([2]; 0.9494 µM): 63.68
FPDc ([2]; 3 µM): 65.29
FPD measurement ([5]; 0.09507 µM): 1 Values Out Of 1 Were Excluded Due To Quiescence Or 0 Fpdc
FPDc ([5]; 0.09507 µM): 1 Values Out Of 1 Were Excluded Due To Quiescence Or 0 Fpdc
FPD measurement ([5]; 0.3004 µM): 1 Values Out Of 1 Were Excluded Due To Quiescence Or 0 Fpdc
FPDc ([5]; 0.3004 µM): 1 Values Out Of 1 Were Excluded Due To Quiescence Or 0 Fpdc
FPD measurement ([5]; 0.9494 µM): 1 Values Out Of 1 Were Excluded Due To Quiescence Or 0 Fpdc
FPDc ([5]; 0.9494 µM): 1 Values Out Of 1 Were Excluded Due To Quiescence Or 0 Fpdc
FPD measurement ([5]; 3 µM): 1 Values Out Of 1 Were Excluded Due To Quiescence Or 0 Fpdc
FPDc ([5]; 3 µM): 1 Values Out Of 1 Were Excluded Due To Quiescence Or 0 Fpdc
APDc ([3]; 0.09507 µM): 47.87
FPD measurement ([3]; 0.09507 µM): 47.87 FPDc
APDc ([3]; 0.3004 µM): 55.24
FPD measurement ([3]; 0.3004 µM): 55.24 FPDc
APDc ([3]; 0.9494 µM): 62.1
FPD measurement ([3]; 0.9494 µM): 62.1 FPDc
APDc ([3]; 3 µM): 73.69
FPD measurement ([3]; 3 µM): 73.69 FPDc

O=C(CCCN1CC=C(n2c(=O)[nH]c3ccccc32)CC1)c1ccc(F)cc1 [DROPERIDOL]
FPD measurement [1, 14]: 60.21 FPDc
FPDc [1, 14]: 6 Values Out Of 6 Were Excluded Due To Quiescence Or 0 Fpdc
FPD measurement [1, 15]: 132.5 FPDc
FPDc [1, 15]: 6 Values Out Of 6 Were Excluded Due To Quiescence Or 0 Fpdc
FPD measurement [1, 16]: 151.8 FPDc
FPDc [1, 16]: 6 Values Out Of 6 Were Excluded Due To Quiescence Or 0 Fpdc
FPD measurement ([1]; 1 µM, concentration (um) 1 uM): 41.51 FPDc
FPDc ([1]; 1 µM, concentration (um) 1 uM): 6 Values Out Of 6 Were Excluded Due To Quiescence Or 0 Fpdc
FPDc ([2]; 0.03169 µM): 71.23
FPDc ([2]; 0.1001 µM): 90.23
FPDc ([2]; 0.3165 µM): 123.3
FPDc ([2]; 1 µM): More Than Half The Wells Had A Quiescence Event Or Fpdc Readings Of 0
FPD measurement ([5]; 0.03169 µM): 1 Values Out Of 1 Were Excluded Due To Quiescence Or 0 Fpdc
FPDc ([5]; 0.03169 µM): 1 Values Out Of 1 Were Excluded Due To Quiescence Or 0 Fpdc
FPD measurement ([5]; 0.1001 µM): 1 Values Out Of 1 Were Excluded Due To Quiescence Or 0 Fpdc
FPDc ([5]; 0.1001 µM): 1 Values Out Of 1 Were Excluded Due To Quiescence Or 0 Fpdc
FPD measurement ([5]; 0.3165 µM): 1 Values Out Of 1 Were Excluded Due To Quiescence Or 0 Fpdc
FPDc ([5]; 0.3165 µM): 1 Values Out Of 1 Were Excluded Due To Quiescence Or 0 Fpdc
FPD measurement ([5]; 1 µM): 1 Values Out Of 1 Were Excluded Due To Quiescence Or 0 Fpdc
FPDc ([5]; 1 µM): 1 Values Out Of 1 Were Excluded Due To Quiescence Or 0 Fpdc
APDc ([3]; 0.03169 µM): 57.78
FPD measurement ([3]; 0.03169 µM): 57.78 FPDc
APDc ([3]; 0.1001 µM): 53.48
FPD measurement ([3]; 0.1001 µM): 53.48 FPDc
APDc ([3]; 0.3165 µM): 58.08
FPD measurement ([3]; 0.3165 µM): 58.08 FPDc
APDc ([3]; 1 µM): 67.51
FPD measurement ([3]; 1 µM): 67.51 FPDc

O=c1[nH]c2ccccc2n1C1CCN(CCCC(c2ccc(F)cc2)c2ccc(F)cc2)CC1 [PIMOZIDE]
FPD measurement [1, 17]: 46.31 FPDc
FPDc [1, 17]: 6 Values Out Of 6 Were Excluded Due To Quiescence Or 0 Fpdc
FPD measurement [1, 18]: 49.59 FPDc
FPDc [1, 18]: 6 Values Out Of 6 Were Excluded Due To Quiescence Or 0 Fpdc
FPD measurement [1, 19]: 61.97 FPDc
FPDc [1, 19]: 6 Values Out Of 6 Were Excluded Due To Quiescence Or 0 Fpdc
FPD measurement [1, 9]: 56.98 FPDc
FPDc [1, 9]: 6 Values Out Of 6 Were Excluded Due To Quiescence Or 0 Fpdc
FPDc [6, 17]: 18.43
FPD measurement [6, 18]: 5 Values Out Of 5 Were Excluded Due To Quiescence Or 0 Apdc
FPDc [6, 18]: 26.86
FPDc [6, 19]: 37.06
FPDc [6, 9]: 13.57
APDc [7, 17]: 66.03
FPD measurement [7, 17]: 66.03 FPDc
APDc [7, 18]: 67.09
FPD measurement [7, 18]: 67.09 FPDc
APDc [7, 19]: 74.77
FPD measurement [7, 19]: 74.77 FPDc
APDc [7, 9]: 98.75
FPD measurement [7, 9]: 98.75 FPDc
FPD measurement ([5]; 0.0009507 µM): 1 Values Out Of 1 Were Excluded Due To Quiescence Or 0 Fpdc
FPDc ([5]; 0.0009507 µM): 1 Values Out Of 1 Were Excluded Due To Quiescence Or 0 Fpdc
FPD measurement ([5]; 0.003004 µM): 1 Values Out Of 1 Were Excluded Due To Quiescence Or 0 Fpdc
FPDc ([5]; 0.003004 µM): 1 Values Out Of 1 Were Excluded Due To Quiescence Or 0 Fpdc
FPD measurement ([5]; 0.009494 µM): 1 Values Out Of 1 Were Excluded Due To Quiescence Or 0 Fpdc
FPDc ([5]; 0.009494 µM): 1 Values Out Of 1 Were Excluded Due To Quiescence Or 0 Fpdc
FPD measurement ([5]; 0.03 µM): 1 Values Out Of 1 Were Excluded Due To Quiescence Or 0 Fpdc
FPDc ([5]; 0.03 µM): 1 Values Out Of 1 Were Excluded Due To Quiescence Or 0 Fpdc
